Assay results taken from ChEMBL document CHEMBL3507680, “University of Dundee, Gates Library screen for HepG2 cell viability”.

Assay: Human HepG2 cell viability assay in 384 well format
Assay type: toxicity, cell-based
Parameters: dose 125 nL, time 70.5 hour; cytotoxicity at 70.5 h: concentration not given beside the values
Conditions: HepG2 cells, read-out: Inhibition

Structure (SMILES)	cytotoxicity at 70.5 h
COCC1CC2(CCN(C(=O)c3oc4ccccc4c3C)CC2)CO1 (configuration not stated)	3.46%
Cn1nc(C#N)c2c1CN(C(=O)c1ccsc1)CCC2	5.67%
Cc1nc(CN2CCO[C@H]3CN(C(=O)c4cccn4C)C[C@H]32)cs1	5.54%
Cc1nc(CN2CCO[C@H]3CN(C(=O)c4ccncc4)C[C@H]32)cs1	6.5%
Cc1nn(CCc2nnc(NCC(C)C)s2)c(C)c1Br	-16%
Cc1cc(C(F)(F)F)nn1C(C)C(=O)NN1CCOCC1 (configuration not stated)	-7.56%
Cc1nn(CC(=O)N2CCN(Cc3cn(C)nc3C)CC2)cc1Br	25.1%
CCn1ncc(CN(C)C(=O)c2ccn(C)n2)c1C	-6.74%
Cc1nn(CC(=O)N2CCN(Cc3cnn(C)c3C)CC2)cc1Br	29.4%
Cc1nn(Cc2ccc(C(=O)NCCCN3CCCC3=O)o2)c(C)c1Br	-7.69%
Cc1cc(C(F)(F)F)nn1CC(C)C(=O)Nc1cccnc1 (configuration not stated)	-3.81%
CCn1nc(C)c(CN(C)S(=O)(=O)c2cnn(C)c2)c1C	-5.84%
CS(=O)(=O)N1CCC(C(=O)NCCCn2cc(Cl)cn2)CC1	-13.1%
CCS(=O)(=O)Nc1ccn(Cc2ccc(F)cc2Cl)n1	-8.72%
CCS(=O)(=O)Nc1cnn(Cc2cccc(F)c2)c1	-4.79%
Cn1cc(-c2cc(-c3cnn(C)c3)n(CC(=O)NC3CC3)n2)cn1	-20.4%
CCc1nnc(SCc2nonc2C)n1C	-11.2%
Cn1nc(C(=O)N2CCOCC2)cc1C(=O)Nc1c(Cl)cccc1Cl	-2.69%
Cn1cc(NC(=O)c2cc3c(s2)CCCC3)cn1	-0.0582%

Structure (SMILES)	cytotoxicity at 70.5 h
O=C(NC1CCCC1)c1cnn2c(-c3ccco3)ccnc12	-8.37%
Cc1nn(CCNC(=O)c2cc(C3CC3)[nH]n2)c(C)c1Cl	3.19%
Cc1c(S(=O)(=O)NCC(C)Cn2cc(Cl)cn2)cnn1C (configuration not stated)	1.36%
Cc1nn(C)cc1S(=O)(=O)N(CCc1ccccc1)Cc1ccn(C)n1	-4.26%
CCn1cc(S(=O)(=O)N(CCc2ccccc2)Cc2ccn(C)n2)cn1	-11.1%
O=C(Cn1ccc(C(=O)O)n1)Nc1c(Cl)cccc1Cl	-3.45%
COc1ccc2nc(NC(=O)c3c(C(=O)O)cnn3C)sc2c1	-8.88%
CCn1ccc(-c2cc(C(=O)O)n3ncc(Cl)c3n2)n1	-10.2%
CCn1ccc(-c2cc(C(=O)O)n3nc(C(F)(F)F)c(Br)c3n2)n1	-3.3%
CCn1ncc2c(C(F)F)cc(-c3ccn(C)n3)nc21	-7.69%
Cc1nn(C)cc1-c1cc(C(F)F)nc(NC2CCCCC2)n1	-11.8%
O=C(NCC(F)F)c1cc(-c2ccccc2)nc2ncnn12	-1.07%
CCOc1ccc2oc(-c3cnn(C)c3C)c(O)c(=O)c2c1	-3.56%
Nc1no[n+]([O-])c1C(=O)NCc1cccnc1	-0.714%
Nc1no[n+]([O-])c1C(=O)NCc1ccccn1	-13.7%
N#Cc1cn[nH]c1NCc1cc(Br)ccc1O	-9.76%
N#Cc1c[nH]nc1NCc1ccc2c(c1)OCO2	-10.8%
O=C(Cn1cc(I)cn1)N1CCCCCC1	-3.07%
N#Cc1cn[nH]c1NCc1cc(I)cc(I)c1O	-9.83%

Structure (SMILES)	cytotoxicity at 70.5 h
CCOC(=O)Cn1ccc(NC(=O)Cc2ccccc2F)n1	-18.1%
NC(=O)c1c[nH]nc1NCc1ccc2c(c1)OCO2	-18.7%
COc1cc(NCc2ccc(Cl)cc2)c(-c2nn[nH]n2)cc1OC	-0.792%
COc1cc(NCc2ccncc2)c(-c2nn[nH]n2)cc1OC	-1.7%
COc1ccc(-c2cc(C3(O)CCN(C)CC3)on2)cc1	-0.517%
Fc1ccccc1-c1nnn(CCCc2nn[nH]n2)n1	-5.54%
Clc1cccc(-n2cnnn2)c1N1CCCC1	3.81%
CC(C)=CCCC(C)(O)c1cc(C(N)=O)no1 (configuration not stated)	-9.16%
COC(=O)C1=NOC(Cc2cc(OC)c3c(c2)OCO3)C1 (configuration not stated)	-20.2%
COc1c(Br)c(CC2CC(CO)=NO2)c(Br)c2c1OCO2 (configuration not stated)	-7.56%
O=C1CC(c2cccnc2)c2c(sc3c2CCCC3)N1 (configuration not stated)	-3.62%
O=C1CC(c2ccncc2)c2c(sc3c2CCCC3)N1 (configuration not stated)	-13.1%
CCOC(=O)c1cc(C(C)(O)CCC=C(C)C)on1 (configuration not stated)	-9.61%
CCOC(=O)C1=NOC(Cc2cc(OC)c3c(c2)OCO3)C1 (configuration not stated)	18.8%
O=C1CC(c2ccc(C(=O)O)cc2)c2c(sc3c2CCCC3)N1 (configuration not stated)	-9.3%
COc1cc(C2SCC(=O)Nc3[nH]ncc32)cc2c1OCO2 (configuration not stated)	-10.8%
N#CCC1CC(c2ccc(F)cc2)=NO1 (configuration not stated)	-10%
CNc1[nH]nc(N)c1C(=O)Nc1ccc(OC)cc1	1.52%
O=C1CC(c2ccc3c(c2)OCO3)c2snc(C(=O)O)c2N1 (configuration not stated)	-10.6%
